Test results taken from US20260199316A1, “SOLID DISPERSION, PREPARATION METHOD THEREFOR, AND USE THEREOF” (HANGZHOU GLUBIO PHARMACEUTICAL CO., LTD, priority 2022, published 2026).
In brackets after ≈: the same amount, converted by molar mass.

How the values were obtained:
Assay type in all cases: physicochemical
[1] = Solubility of rapid solvent evaporation products in FaSSIF
Experimental: About 10 mg of the API control of the compound of formula A and 40 mg of the polymer carrier were transferred to 1 mL of DCM:EtOH=9:1 (v/v) to prepare a solution with 20% drug loading. The resulting clear solution was rapidly evaporated at 80° C. until there was no liquid to prepare a solid dispersion. The API control of the compound of formula A was also treated separately in the same manner.

[2] = One-week solid stability study of solid dispersions
Experimental: According to Table 6, three solid dispersions, namely, formulation of API+Soluplus, formulation of API+PVP VA64, and formulation of API+HPC SSL, were stored at 25° C./60% RH (open) and 40° C./75% RH (open) for one week, the appearance of the sample was visually observed and the purity of the samples was analyzed by HPLC.
Therefore, the storage of solid dispersions should avoid exposure to high temperature and high humidity conditions to prevent chemical degradation.

[3] = Four-week solid stability study of API+HPC SSL solid dispersions
Experimental: All solid dispersions with formulation of API+HPC SSL were stored at 25° C./60% RH (open) and 40° C./75% RH (sealed). After one week and four weeks (1 w and 4 w), the sample appearance was visually observed, the crystal form change was tested by XRPD, and the sample purity was analyzed by HPLC. The results are shown in Tables 11 to 12 and FIGS. 37 to 38.

Compound: O=C1CC[C@H](N2Cc3cc(C(=O)N[C@H](c4ccc(Cl)cn4)C4CCC4)ccc3C2=O)C(=O)N1 [API control, N—((S)-(5-chloropyridin-2-yl)(cyclobutyl)methyl)-2-((S)-2,6-dioxopiperidin-3-yl)-1-oxoisoindoline-5-carboxamide]
- solubility ([1]; 0.25 h): 470 µg/mL (≈ 1010 µM)
- solubility ([1]; 0.5 h): 460 µg/mL (≈ 985 µM)
- solubility ([1]; 0.75 h): 490 µg/mL (≈ 1050 µM)
- solubility ([1]; 1 h): 510 µg/mL (≈ 1090 µM)
- solubility ([1]; 2 h): 440 µg/mL (≈ 942 µM)
- Appearance ([2]; 25° C./60% RH open, one week): White powder
- Contents ([2]; 25° C./60% RH open, one week): 97.26%
- Impurities ([2]; 25° C./60% RH open, one week): 0.72%
- RRT 0.54 ([2]; 25° C./60% RH open, one week): 0.10%
- RRT 0.92 ([2]; 25° C./60% RH open, one week): <LOQ
- RRT 0.93 ([2]; 25° C./60% RH open, one week): 0.10%
- RRT 0.95 ([2]; 25° C./60% RH open, one week): 0.09%
- RRT 0.96 ([2]; 25° C./60% RH open, one week): 0.10%
- RRT 1.00 ([2]; 25° C./60% RH open, one week): 99.29%
- RRT 1.11 ([2]; 25° C./60% RH open, one week): 0.09%
- RRT 1.18 ([2]; 25° C./60% RH open, one week): 0.17%
- RRT 1.24 ([2]; 25° C./60% RH open, one week): 0.06%
- Appearance ([2]; 40° C./75% RH open, one week): Slight agglomeration
- Contents ([2]; 40° C./75% RH open, one week): 96.79%
- Impurities ([2]; 40° C./75% RH open, one week): 1.05%
- RRT 0.54 ([2]; 40° C./75% RH open, one week): 0.13%
- RRT 0.92 ([2]; 40° C./75% RH open, one week): 0.12%
- RRT 0.93 ([2]; 40° C./75% RH open, one week): 0.26%
- RRT 0.95 ([2]; 40° C./75% RH open, one week): 0.09%
- RRT 0.96 ([2]; 40° C./75% RH open, one week): 0.13%
- RRT 1.00 ([2]; 40° C./75% RH open, one week): 98.95%
- RRT 1.11 ([2]; 40° C./75% RH open, one week): 0.11%
- RRT 1.18 ([2]; 40° C./75% RH open, one week): 0.14%
- RRT 1.24 ([2]; 40° C./75% RH open, one week): 0.06%
- Appearance ([2]; Initial): White powder
- Impurities ([2]; Initial): 0.67%
- RRT 0.54 ([2]; Initial): 0.11%
- RRT 0.92 ([2]; Initial): <LOQ
- RRT 0.93 ([2]; Initial): 0.09%
- RRT 0.95 ([2]; Initial): 0.09%
- RRT 0.96 ([2]; Initial): 0.10%
- RRT 1.00 ([2]; Initial): 99.34%
- RRT 1.11 ([2]; Initial): 0.07%
- RRT 1.18 ([2]; Initial): 0.15%
- RRT 1.24 ([2]; Initial): 0.05%
- Contents ([3]; 25° C./60% RH open, 1 w): 96.84%
- Impurities ([3]; 25° C./60% RH open, 1 w): 0.81%
- RRT 0.92 ([3]; 25° C./60% RH open, 1 w): 0.05%
- RRT 0.93 ([3]; 25° C./60% RH open, 1 w): 0.10%
- RRT 0.95 ([3]; 25° C./60% RH open, 1 w): 0.09%
- RRT 0.96 ([3]; 25° C./60% RH open, 1 w): 0.14%
- RRT 1.00 ([3]; 25° C./60% RH open, 1 w): 99.20%
- RRT 1.10 ([3]; 25° C./60% RH open, 1 w): 0.32%
- RRT 1.17 ([3]; 25° C./60% RH open, 1 w): 0.10%
- Contents ([3]; 25° C./60% RH open, 4 w): 101.1%
- Impurities ([3]; 25° C./60% RH open, 4 w): 0.70%
- RRT 0.92 ([3]; 25° C./60% RH open, 4 w): <LOQ
- RRT 0.93 ([3]; 25° C./60% RH open, 4 w): 0.07%
- RRT 0.95 ([3]; 25° C./60% RH open, 4 w): 0.09%
- RRT 0.96 ([3]; 25° C./60% RH open, 4 w): 0.14%
- RRT 1.00 ([3]; 25° C./60% RH open, 4 w): 99.30%
- RRT 1.10 ([3]; 25° C./60% RH open, 4 w): 0.32%
- RRT 1.17 ([3]; 25° C./60% RH open, 4 w): 0.09%
- Contents ([3]; 40° C./75% RH sealed, 1 w): 97.46%
- Impurities ([3]; 40° C./75% RH sealed, 1 w): 0.75%
- RRT 0.92 ([3]; 40° C./75% RH sealed, 1 w): 0.03%
- RRT 0.93 ([3]; 40° C./75% RH sealed, 1 w): 0.06%
- RRT 0.95 ([3]; 40° C./75% RH sealed, 1 w): 0.09%
- RRT 0.96 ([3]; 40° C./75% RH sealed, 1 w): 0.15%
- RRT 1.00 ([3]; 40° C./75% RH sealed, 1 w): 99.25%
- RRT 1.10 ([3]; 40° C./75% RH sealed, 1 w): 0.32%
- RRT 1.17 ([3]; 40° C./75% RH sealed, 1 w): 0.09%
- Contents ([3]; 40° C./75% RH sealed, 4 w): 101.2%
- Impurities ([3]; 40° C./75% RH sealed, 4 w): 0.70%
- RRT 0.92 ([3]; 40° C./75% RH sealed, 4 w): <LOQ
- RRT 0.93 ([3]; 40° C./75% RH sealed, 4 w): 0.06%
- RRT 0.95 ([3]; 40° C./75% RH sealed, 4 w): 0.09%
- RRT 0.96 ([3]; 40° C./75% RH sealed, 4 w): 0.14%
- RRT 1.00 ([3]; 40° C./75% RH sealed, 4 w): 99.30%
- RRT 1.10 ([3]; 40° C./75% RH sealed, 4 w): 0.33%
- RRT 1.17 ([3]; 40° C./75% RH sealed, 4 w): 0.09%
- Impurities ([3]; Initial): 0.78%
- RRT 0.92 ([3]; Initial): 0.05%
- RRT 0.93 ([3]; Initial): 0.10%
- RRT 0.95 ([3]; Initial): 0.09%
- RRT 0.96 ([3]; Initial): 0.15%
- RRT 1.00 ([3]; Initial): 99.22%
- RRT 1.10 ([3]; Initial): 0.31%
- RRT 1.17 ([3]; Initial): 0.09%
